According to ChEMBL document CHEMBL1201862, “PubChem BioAssay data set” (2004):
Active and inactive are the calls of the source.

Legend:
[1] = biological target: Peroxisome proliferator-activated receptor gamma/Nuclear receptor coactivator 2 (Homo sapiens, UniProt P37231); format: functional;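 further: agonist potency for raising coactivator recruitment to the receptor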
[2] = biological target: Peroxisome proliferator-activated receptor gamma/Nuclear receptor coactivator 1 (Homo sapiens, UniProt P37231); format: functional;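 further: agonist potency as compounds enhance coactivator SRC-1 recruitment to PPARgamma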
Sequence of Peroxisome proliferator-activated receptor gamma/Nuclear receptor coactivator 1 (P37231 whole entry): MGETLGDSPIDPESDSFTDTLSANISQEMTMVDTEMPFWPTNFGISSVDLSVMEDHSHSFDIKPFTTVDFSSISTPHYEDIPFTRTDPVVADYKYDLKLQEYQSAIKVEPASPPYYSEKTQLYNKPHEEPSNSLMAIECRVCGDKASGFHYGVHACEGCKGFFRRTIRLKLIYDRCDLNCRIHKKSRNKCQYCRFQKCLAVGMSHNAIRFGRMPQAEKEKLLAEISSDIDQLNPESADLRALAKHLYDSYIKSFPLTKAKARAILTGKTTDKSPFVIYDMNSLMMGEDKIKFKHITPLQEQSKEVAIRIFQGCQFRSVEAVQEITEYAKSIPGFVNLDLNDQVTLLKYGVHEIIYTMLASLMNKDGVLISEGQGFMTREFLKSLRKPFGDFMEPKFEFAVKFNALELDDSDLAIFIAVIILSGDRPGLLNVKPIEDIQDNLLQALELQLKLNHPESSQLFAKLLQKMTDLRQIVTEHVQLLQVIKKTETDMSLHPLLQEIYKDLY
Sequence of Peroxisome proliferator-activated receptor gamma/Nuclear receptor coactivator 1 (Q15788 whole entry, further chain): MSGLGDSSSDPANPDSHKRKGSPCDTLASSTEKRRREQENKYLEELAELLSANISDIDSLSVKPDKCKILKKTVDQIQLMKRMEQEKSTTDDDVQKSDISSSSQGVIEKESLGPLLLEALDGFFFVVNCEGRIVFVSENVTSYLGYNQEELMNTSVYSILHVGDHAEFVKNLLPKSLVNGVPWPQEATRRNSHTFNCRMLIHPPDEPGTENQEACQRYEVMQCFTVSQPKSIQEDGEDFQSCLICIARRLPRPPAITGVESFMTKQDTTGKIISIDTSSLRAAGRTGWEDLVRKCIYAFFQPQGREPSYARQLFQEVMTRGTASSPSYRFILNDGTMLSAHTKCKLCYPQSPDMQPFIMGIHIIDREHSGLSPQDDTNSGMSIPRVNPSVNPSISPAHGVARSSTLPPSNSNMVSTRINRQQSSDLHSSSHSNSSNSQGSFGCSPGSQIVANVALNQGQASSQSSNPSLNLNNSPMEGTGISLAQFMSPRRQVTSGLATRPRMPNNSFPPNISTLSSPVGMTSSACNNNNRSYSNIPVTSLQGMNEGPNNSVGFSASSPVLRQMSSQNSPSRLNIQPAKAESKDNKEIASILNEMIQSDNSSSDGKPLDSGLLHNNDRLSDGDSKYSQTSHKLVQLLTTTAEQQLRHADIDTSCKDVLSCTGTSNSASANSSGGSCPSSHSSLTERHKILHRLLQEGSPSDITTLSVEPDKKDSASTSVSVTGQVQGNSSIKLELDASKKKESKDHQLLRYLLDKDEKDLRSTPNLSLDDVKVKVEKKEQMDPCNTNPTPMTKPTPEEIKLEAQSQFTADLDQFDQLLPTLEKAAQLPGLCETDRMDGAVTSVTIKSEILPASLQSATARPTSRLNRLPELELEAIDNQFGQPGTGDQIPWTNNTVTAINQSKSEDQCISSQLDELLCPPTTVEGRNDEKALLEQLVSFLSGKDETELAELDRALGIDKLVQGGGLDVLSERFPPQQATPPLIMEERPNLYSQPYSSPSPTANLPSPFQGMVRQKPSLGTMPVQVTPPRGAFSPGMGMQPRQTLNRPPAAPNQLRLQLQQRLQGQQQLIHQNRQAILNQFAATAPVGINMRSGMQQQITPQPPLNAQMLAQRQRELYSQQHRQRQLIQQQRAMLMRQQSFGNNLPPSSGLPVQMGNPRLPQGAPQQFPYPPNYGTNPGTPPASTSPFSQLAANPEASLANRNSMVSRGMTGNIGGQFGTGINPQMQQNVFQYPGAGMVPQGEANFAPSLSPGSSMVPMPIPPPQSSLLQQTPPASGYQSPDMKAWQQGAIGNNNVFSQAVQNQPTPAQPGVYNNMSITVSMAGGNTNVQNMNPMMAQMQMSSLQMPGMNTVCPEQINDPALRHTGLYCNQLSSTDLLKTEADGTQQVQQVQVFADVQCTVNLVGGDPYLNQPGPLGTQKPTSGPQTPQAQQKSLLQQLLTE

[3] = biological target: Peroxisome proliferator-activated receptor gamma/Nuclear receptor coactivator 3 (Homo sapiens, UniProt P37231); format: functional;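 further: agonist potency for raising coactivator recruitment to the receptor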
Sequence of Peroxisome proliferator-activated receptor gamma/Nuclear receptor coactivator 3 (P37231 whole entry): as the sequence (P37231 whole entry) above
Sequence of Peroxisome proliferator-activated receptor gamma/Nuclear receptor coactivator 3 (Q9Y6Q9 whole entry, further chain): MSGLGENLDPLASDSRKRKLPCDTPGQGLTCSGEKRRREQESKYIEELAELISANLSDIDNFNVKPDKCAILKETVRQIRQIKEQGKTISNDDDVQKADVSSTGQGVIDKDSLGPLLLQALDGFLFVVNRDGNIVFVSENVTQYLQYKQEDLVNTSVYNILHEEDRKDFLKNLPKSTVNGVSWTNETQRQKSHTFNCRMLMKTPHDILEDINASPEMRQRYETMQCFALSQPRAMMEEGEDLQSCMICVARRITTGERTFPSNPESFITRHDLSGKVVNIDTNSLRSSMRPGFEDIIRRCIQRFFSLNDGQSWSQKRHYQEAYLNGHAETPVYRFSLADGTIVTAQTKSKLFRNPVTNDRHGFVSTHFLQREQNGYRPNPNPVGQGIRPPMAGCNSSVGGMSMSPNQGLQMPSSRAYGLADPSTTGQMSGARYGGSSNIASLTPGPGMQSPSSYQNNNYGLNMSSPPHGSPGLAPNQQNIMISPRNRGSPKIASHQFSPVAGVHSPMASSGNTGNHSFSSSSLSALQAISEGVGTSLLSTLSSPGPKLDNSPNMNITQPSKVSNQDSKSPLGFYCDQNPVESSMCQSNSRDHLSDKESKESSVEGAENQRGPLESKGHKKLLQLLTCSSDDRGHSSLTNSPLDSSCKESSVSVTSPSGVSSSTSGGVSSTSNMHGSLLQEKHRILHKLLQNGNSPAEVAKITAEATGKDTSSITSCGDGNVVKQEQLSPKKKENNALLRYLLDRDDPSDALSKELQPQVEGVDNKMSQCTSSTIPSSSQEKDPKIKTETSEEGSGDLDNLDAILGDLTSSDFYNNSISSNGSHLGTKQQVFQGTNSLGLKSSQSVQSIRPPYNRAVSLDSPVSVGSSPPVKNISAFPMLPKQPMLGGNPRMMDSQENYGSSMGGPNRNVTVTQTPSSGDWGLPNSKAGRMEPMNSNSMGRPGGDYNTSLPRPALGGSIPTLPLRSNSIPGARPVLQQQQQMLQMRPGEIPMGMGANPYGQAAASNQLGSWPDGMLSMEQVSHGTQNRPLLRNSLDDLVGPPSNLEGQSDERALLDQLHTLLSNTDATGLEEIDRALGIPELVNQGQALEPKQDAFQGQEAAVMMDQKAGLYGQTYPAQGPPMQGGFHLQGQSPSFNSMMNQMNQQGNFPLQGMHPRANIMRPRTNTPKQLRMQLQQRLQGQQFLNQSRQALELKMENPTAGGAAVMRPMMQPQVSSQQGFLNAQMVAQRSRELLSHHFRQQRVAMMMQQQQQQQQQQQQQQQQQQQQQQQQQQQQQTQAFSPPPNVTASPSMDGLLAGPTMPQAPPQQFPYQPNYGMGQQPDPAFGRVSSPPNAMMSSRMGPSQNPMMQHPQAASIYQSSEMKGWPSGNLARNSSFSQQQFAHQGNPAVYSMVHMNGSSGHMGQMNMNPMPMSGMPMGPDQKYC

[4] = test system: Streptococcus sp. 'group A'; experiment: growth inhibition of control SK(-) GAS strain, dose response, counter-screen for streptokinase expression inhibitor project, luminescence, kanamycin, BacTiterGlo, confirmation (AID 1900); format: functional, organism-based
Streptokinase A = biological target: T1, Streptokinase A (Streptococcus pyogenes serotype M1, UniProt P10520); experiment: S. pyogenes streptokinase expression inhibitors, potency, dose response, plasminogen activation absorbance, OD405 (AID 1914); format: functional, Streptococcus pyogenes M1 GAS;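 further: secreted streptokinase activity via plasminogen activation per viability signal from cell pellet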
T1 sequence (P10520 whole entry): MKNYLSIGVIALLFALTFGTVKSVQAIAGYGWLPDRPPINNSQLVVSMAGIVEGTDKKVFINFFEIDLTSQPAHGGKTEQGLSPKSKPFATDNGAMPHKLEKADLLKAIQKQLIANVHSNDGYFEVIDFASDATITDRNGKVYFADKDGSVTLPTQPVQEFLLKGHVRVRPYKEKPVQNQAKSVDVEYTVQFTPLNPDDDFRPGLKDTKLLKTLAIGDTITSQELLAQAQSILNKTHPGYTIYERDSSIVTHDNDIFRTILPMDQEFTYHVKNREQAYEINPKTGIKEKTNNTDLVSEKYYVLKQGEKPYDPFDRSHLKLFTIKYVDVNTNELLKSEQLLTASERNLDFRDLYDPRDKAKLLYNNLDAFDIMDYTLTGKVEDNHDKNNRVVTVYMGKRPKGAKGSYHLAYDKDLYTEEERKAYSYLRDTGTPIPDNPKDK

[5] = biological target: T2, Calpain-2 catalytic subunit (Sus scrofa, UniProt P43367); experiment: pig calpain II inhibitor potency, dose response, biochemical, fluorogenic peptide substrate (AID 1420); format: functional
T2 sequence (P43367 whole entry): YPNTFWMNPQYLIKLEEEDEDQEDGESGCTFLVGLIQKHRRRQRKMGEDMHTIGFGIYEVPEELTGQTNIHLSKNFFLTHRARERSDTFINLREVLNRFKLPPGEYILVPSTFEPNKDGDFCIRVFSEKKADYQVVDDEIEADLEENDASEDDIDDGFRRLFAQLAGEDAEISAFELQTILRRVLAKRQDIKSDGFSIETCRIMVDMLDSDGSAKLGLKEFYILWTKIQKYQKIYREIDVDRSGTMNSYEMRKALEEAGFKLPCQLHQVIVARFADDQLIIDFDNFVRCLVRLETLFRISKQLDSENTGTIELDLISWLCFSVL

Streptococcus = experiment: Group A Streptococcus viability loss, dose response, counter-screen for streptokinase expression inhibitor project, luminescence, BacTiterGlo (AID 1915); format: functional, organism-based;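 further: potency for reduction of bacterial viability or growth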
[6] = Luminescence Cell-Based Dose Retest to Confirm Inhibitors of Cancer Stem Cells. [Related pubchem assays (depositor defined):AID2717, AID2721]; format: functional, Homo sapiens; conditions: Homo sapiens
[7] = inhibitors of Vif binding to APOBEC3G peptide, primary screen, biochemical, TR-FRET, GST-Vif 1-94, biotin-A3G peptide, dose response retest (AID 1117319); format: functional;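 further: TR-FRET signal of purified GST-Vif binding a biotinylated A3G peptide; inhibitors lower the FRET signal by blocking Vif and A3G binding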
[8] = cytotoxicity in HPDE-C7 cells, cell-based, fluorescence, HTS (AID 430); format: functional; conditions: Homo sapiens
[9] = cytotoxicity in KRAS-transformed pancreatic duct cells, primary screen, cell-based, fluorescence, HTS (AID 431); format: functional; conditions: Homo sapiens;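 further: cell line used: HPDE-C7K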
Aminopeptidase N = biological target: T3, Aminopeptidase N (Plasmodium falciparum FcB1/Columbia, UniProt O96935); experiment: P. falciparum M1AAP inhibitors, biochemical, fluorogenic H-Leu-NHMec substrate, 1536-well (AID 1445); set-up: species or system Plasmodium falciparum 3D7, 3D7
T3 sequence (O96935 whole entry): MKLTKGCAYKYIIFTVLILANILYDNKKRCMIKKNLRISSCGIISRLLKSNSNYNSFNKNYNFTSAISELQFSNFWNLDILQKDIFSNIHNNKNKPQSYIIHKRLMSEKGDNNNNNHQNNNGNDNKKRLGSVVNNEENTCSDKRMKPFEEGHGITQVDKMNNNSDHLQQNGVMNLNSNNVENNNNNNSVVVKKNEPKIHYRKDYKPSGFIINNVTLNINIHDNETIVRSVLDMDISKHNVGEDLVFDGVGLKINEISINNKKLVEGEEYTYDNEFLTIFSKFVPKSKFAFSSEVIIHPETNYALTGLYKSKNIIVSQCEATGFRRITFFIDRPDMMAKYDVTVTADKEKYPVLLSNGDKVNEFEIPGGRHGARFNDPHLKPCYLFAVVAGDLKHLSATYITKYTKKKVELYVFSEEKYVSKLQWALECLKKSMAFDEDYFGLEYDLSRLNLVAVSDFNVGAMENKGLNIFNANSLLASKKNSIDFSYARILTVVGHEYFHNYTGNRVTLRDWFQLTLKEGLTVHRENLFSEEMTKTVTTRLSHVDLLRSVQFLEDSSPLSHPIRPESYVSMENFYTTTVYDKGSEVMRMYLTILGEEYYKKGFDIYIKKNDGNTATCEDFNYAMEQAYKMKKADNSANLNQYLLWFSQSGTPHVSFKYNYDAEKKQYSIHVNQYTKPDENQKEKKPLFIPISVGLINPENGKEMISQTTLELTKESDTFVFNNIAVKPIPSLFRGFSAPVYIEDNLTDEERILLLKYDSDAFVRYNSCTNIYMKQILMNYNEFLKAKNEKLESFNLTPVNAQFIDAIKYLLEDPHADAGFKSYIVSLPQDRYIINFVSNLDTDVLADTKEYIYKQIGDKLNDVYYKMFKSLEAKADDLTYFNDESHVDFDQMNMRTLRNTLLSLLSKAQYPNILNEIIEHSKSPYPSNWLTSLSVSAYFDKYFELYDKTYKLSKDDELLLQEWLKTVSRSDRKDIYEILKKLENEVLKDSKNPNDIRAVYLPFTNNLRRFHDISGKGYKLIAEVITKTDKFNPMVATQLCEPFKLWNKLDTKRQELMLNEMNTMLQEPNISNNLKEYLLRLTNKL

Protein skinhead-1 = biological target: T4, Protein skinhead-1 (Caenorhabditis elegans, UniProt P34707); format: functional
T4 sequence (P34707 whole entry): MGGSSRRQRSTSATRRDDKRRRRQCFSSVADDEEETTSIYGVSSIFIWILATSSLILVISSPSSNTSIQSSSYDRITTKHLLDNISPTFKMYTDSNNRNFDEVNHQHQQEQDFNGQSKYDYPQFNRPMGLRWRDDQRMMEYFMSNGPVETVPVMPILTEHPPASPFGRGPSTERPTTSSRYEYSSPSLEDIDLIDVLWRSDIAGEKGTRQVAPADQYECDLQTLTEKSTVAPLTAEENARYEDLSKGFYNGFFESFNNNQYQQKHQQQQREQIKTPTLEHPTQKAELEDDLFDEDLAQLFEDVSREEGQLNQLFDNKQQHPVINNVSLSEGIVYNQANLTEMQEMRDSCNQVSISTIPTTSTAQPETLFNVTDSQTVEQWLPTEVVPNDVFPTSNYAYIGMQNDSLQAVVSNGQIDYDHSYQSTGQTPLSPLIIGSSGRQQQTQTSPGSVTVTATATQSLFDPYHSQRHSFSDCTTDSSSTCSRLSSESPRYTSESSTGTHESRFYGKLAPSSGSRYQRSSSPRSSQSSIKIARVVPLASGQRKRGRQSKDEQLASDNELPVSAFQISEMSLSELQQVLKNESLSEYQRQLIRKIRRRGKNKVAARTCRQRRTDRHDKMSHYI

H9c2 = experiment: cells; format: functional, cell-based; conditions: Rattus norvegicus, H9c2, Myocardium;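 further: confirmatory concentration-response retest of ultra-high-throughput screening hits for modulation of myocardial damage; cell death induced by hydrogen peroxide oxidative stress; compound pretreatment for 60 min then peroxide exposure for 2 h; potency is for protecting the cells against peroxide damage rather than for killing them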
[10] = inhibitors of intracellular T. cruzi replication, confirmation, NIH3T3 host cells, beta-gal luminescence (AID 2044); format: functional, cell-based;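 further: intracellular parasites grown in NIH/3T3 mouse fibroblasts as host cells; luminescent beta-galactosidase reporter signal from transgenic T. cruzi replicating inside host cells; inhibitors lower the luminescence signal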
[11] = cytotoxicity toward NIH3T3 fibroblasts, dose response, counter-screen, cell-based, ATP luminescence, mouse fibroblasts (AID 2010); format: functional;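 further: cells exposed to compound for about 90 hours before reading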
[12] = biological target: T5, DNA repair protein RAD52 homolog (Homo sapiens, UniProt P43351); format: functional, biochemical
T5 sequence (P43351 whole entry): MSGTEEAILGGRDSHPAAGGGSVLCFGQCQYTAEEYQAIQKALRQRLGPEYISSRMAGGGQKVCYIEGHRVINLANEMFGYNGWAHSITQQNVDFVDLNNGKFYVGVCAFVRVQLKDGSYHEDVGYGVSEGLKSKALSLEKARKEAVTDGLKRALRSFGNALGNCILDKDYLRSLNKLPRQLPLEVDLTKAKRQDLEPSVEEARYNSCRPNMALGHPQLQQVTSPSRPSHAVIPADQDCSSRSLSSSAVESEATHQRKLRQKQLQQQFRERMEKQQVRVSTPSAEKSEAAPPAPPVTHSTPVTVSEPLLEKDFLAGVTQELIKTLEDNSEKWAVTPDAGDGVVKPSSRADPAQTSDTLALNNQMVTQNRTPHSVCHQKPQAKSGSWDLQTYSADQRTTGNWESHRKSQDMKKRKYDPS

Fatty acid synthase [13] = biological target: T6, Fatty acid synthase (Homo sapiens, UniProt P49327); experiment: FAS thioesterase domain inhibitors, dose response, biochemical, endpoint fluorescence intensity, uHTS hits (AID 624327); format: functional;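 further: fluorescence from hydrolysis of an O-methyl fluorescein acyl ester substrate by the enzyme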
Fatty acid synthase [14] = biological target: T6, Fatty acid synthase; experiment: FAS thioesterase domain inhibitors, dose response, biochemical, kinetic fluorescence intensity (AID 624326); format: functional;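 further: rate of fluorescence rise from hydrolysis of a fluorogenic O-methyl fluorescein ester substrate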
[15] = inhibitors of clade B AD8 Env fusion, dose response, cell-based, cherry-pick (AID 652062); format: functional;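 further: luciferase signal from cell-cell fusion driven by HIV-1 clade B AD8 Env; potency is for inhibitors of fusion seen as a drop in luminescence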

Cc1ccc(NC(=O)CN(C)C(=S)NC2CC2)cc1
EC50 [1]: > 79.4 µM (not active)
EC50 [2]: > 79.4 µM (not active)
EC50 [3]: > 79.4 µM (not active)

Clc1ccc(-c2nnnn2-c2ccc(Cl)c(Cl)c2)cc1Cl
EC50 [4]: 9.57 µM (active)
EC50 (Streptokinase A): 8.28 µM (active)
IC50 [5]: < 0.4 µM (not active)
EC50 (Streptococcus): > 150 µM (not active)
AC50 [6]: 3.97 µM (active)
IC50 [7]: > 100 µM (active)

O=C1Nc2cc(Cl)ccc2C1(N1CCNCC1)C(F)(F)F (configuration not stated)
EC50 [8]: > 20 µM (not active)
EC50 [9]: > 20 µM (not active)

Cc1ccc2c(c1)c1nnc(SCC(=O)Nc3cccc(Cl)c3C)nc1n2CC(=O)O
IC50 (Aminopeptidase N): 8.42 µM (active)

CCCCCCn1c(N2CCN(c3cccc(Cl)c3)CC2)nc2c1c(=O)[nH]c(=O)n2C
EC50 [8]: > 20 µM (not active)
EC50 [9]: > 20 µM (not active)
IC50 (Protein skinhead-1): > 100 µM (inactive)

CCOC(=O)c1c(C)[nH]c(C)c1C(=O)COC(=O)c1cccc(S(=O)(=O)NC)c1
IC50 [7]: > 100 µM (active)

Cc1cccc(N2CCN(C(=O)c3cc4n(n3)C(C(F)(F)F)CC(c3ccco3)N4)CC2)c1C (configuration not stated)
EC50 [4]: 3.02 µM (active)
EC50 (Streptokinase A): 16.7 µM (active)
EC50 [8]: > 20 µM (not active)
EC50 [9]: > 20 µM (not active)
EC50 (Streptococcus): 29.1 µM (active)
AC50 [6]: 1.84 µM (active)

CC1(C)OC2OC(C(=O)N/N=C/c3cc(Br)ccc3O)C3OC(C)(C)OC3C2O1 (configuration not stated)
IC50 (Aminopeptidase N): 51.7 µM (active)

O=C(CSc1ncnc2c1nnn2-c1ccc(F)cc1)NCc1ccco1
EC50 [1]: > 79.4 µM (not active)
EC50 [2]: > 79.4 µM (not active)
EC50 [3]: > 79.4 µM (not active)

Nc1c(C(=O)NCCc2ccccc2)c2nc3ccccc3nc2n1CCN1CCOCC1
EC50 [8]: 9.43 µM (active)
EC50 [9]: 10.4 µM (active)

Cc1ccc2nsnc2c1S(=O)(=O)N(Cc1ccco1)Cc1cc2cccc(C)c2nc1O
IC50 (H9c2): > 79 µM (inactive)
IC50 [7]: > 100 µM (active)

CC(OC(=O)c1ccc([N+](=O)[O-])o1)C(=O)NC1CCCCC1C (configuration not stated)
IC50 [7]: > 100 µM (active)

c1ccc(CN2CCN(c3nc(-c4ccccc4)nc(-n4ccnc4)n3)CC2)cc1
EC50 [8]: 9.94 µM (active)
EC50 [10]: 2.31 µM (active)
EC50 [9]: 11.9 µM (active)
EC50 [11]: > 60 µM (not active)

CCC1CCC2(CC1)NC(=O)N(CC(=O)Nc1ccc(OC)c(Cl)c1)C2=O (configuration not stated)
IC50 [7]: > 100 µM (active)

O=C(CCC1CCCN(C(=O)C2=CCCCC2)C1)N1CCN(c2ccccn2)CC1 (configuration not stated)
EC50 [1]: > 79.4 µM (not active)
EC50 [2]: > 79.4 µM (not active)
EC50 [3]: > 79.4 µM (not active)

CCN1CCN(Cc2ccc(NC(=O)c3ccc(C)c(NC(=O)c4csc(-c5ccncc5)n4)c3)cc2C(F)(F)F)CC1
AC50 [12]: 33.6 µM (active)

O=C(Nc1nc(-c2ccc(S(=O)(=O)N3CCCCCC3)cc2)cs1)c1cccs1
EC50 [1]: 14.6 µM (not active)
EC50 [2]: 16.5 µM (not active)
EC50 [3]: 17.4 µM (not active)
EC50 [10]: 2.33 µM (active)
EC50 [11]: 6.61 µM (active)

CN(C)CCCNC(=O)C[C@H]1C[C@H](C(=O)N2CCOCC2)[C@@]2(CCC3CCCC3)c3[nH]c4cc(-c5ccco5)ccc4c3CCN2C1=O
IC50 (Fatty acid synthase [13]): 5.74 µM (active)
IC50 (Fatty acid synthase [14]): 5.89 µM (active)
AC50 [12]: 11.2 µM (active)

C=CCN1C(=O)/C(=c2\sc3nc(=O)c(Cc4ccccc4Cl)nn3c2=O)c2ccccc21
IC50 (Aminopeptidase N): 57.4 µM (active)

O=C(COc1ccc(-n2cnnn2)cc1)Nc1ccc(F)c(F)c1
AC50 [15]: 1.42 µM (active)

COc1cccc(C2=NC(C)(C)NC(c3ccccc3O)C2)c1 (configuration not stated)
EC50 [8]: 11.7 µM (active)
EC50 [9]: 12.5 µM (active)
